Reference: patent US20230096766A1, “AMINO ACID HAVING FUNCTIONAL GROUP CAPABLE OF INTERMOLECULAR HYDROGEN BONDING, PEPTIDE COMPOUND CONTAINING SAME AND METHOD FOR PRODUCTION THEREOF” (Chugai Seiyaku Kabushiki Kaisha, priority 2018, published 2023)
*1 amine or outer side, *2 acyl side, *3 side chain or, on linkers, in order; H or OH if unused. Where a SMILES comes first, the peptide text is derived from it. Bridges are numbered along the chain shown (N, C = ends). [ ]: non-standard residue; d: D form. The star is where a group is joined. Phe(3-OMe,4-CONHMs) = COc1cc(C[C@H](N)C(=O)O)ccc1C(=O)NS(C)(=O)=O; NMeHph(3-OMe-4-CONHMe) = CNC(=O)c1ccc(CC[C@H](NC)C(=O)O)cc1OC; NMeAbu(3,3-F2-piperidino) = CN[C@@H](CCN1CCCC(F)(F)C1)C(=O)O; X19 = CC(C)C[C@H](NN(C)[C@H](Cc1ccccc1)N(C)[*:1])C(=O)[*:2]; hPhe(3-OMe,4-CONHMe) = CNC(=O)c1ccc(CC[C@H](N)C(=O)O)cc1OC; Glu(NHSO2Me) = CS(=O)(=O)NC(=O)CC[C@H](N)C(=O)O; NMePhe(3-Cl) = CN[C@@H](Cc1cccc(Cl)c1)C(=O)O; Propyl(2,2-Me2,3-OH) = CC(C)(CO)C*; NMeF = CN[C@@H](Cc1ccccc1)C(=O)O; NMeGABA = CN(CCCC(=O)[*:2])[*:1]; NMeL = CN[C@@H](CC(C)C)C(=O)O; NMeV = CN[C@H](C(=O)O)C(C)C; NMeAbu = CC[C@H](NC)C(=O)O; NMeA = CN[C@@H](C)C(=O)O; Piperidide = C1CCN(*)CC1; Me2NCH2CH2 = CN(C)CC*; NBuGly = CCCCNCC(=O)O; Sar = CNCC(=O)O; tBu = CC(C)(C)*

Test: in vitro
Details: human, Caco-2, Caco-2

In order of rising Papp:
1. CCCCN1CC(=O)N(C)[C@@H](CC(C)C)C(=O)N[C@@H](CCC(=O)NS(C)(=O)=O)C(=O)N(C)[C@@H](Cc2cccc(Cl)c2)C(=O)N(C)[C@@H](C(C)C)C(=O)N[C@H](C(=O)N2CCCCC2)CC(=O)N[C@H](CC(C)C)C(=O)N(C)[C@@H](Cc2cccc(Cl)c2)C(=O)N[C@@H](CC(C)C)C(=O)N(C)[C@@H](CC(C)C)C(=O)N[C@@H]([C@@H](C)O)C1=O [pd60] ([dL][NMePhe(3-Cl)]L[NMeL]T[NBuGly][NMeL][Glu(NHSO2Me)][NMePhe(3-Cl)][NMeV]D-Piperidide; lactam N-11)  0.01 ×10⁻⁶ cm/s
2. CCCCN1CC(=O)N(C)[C@@H](C(C)C)C(=O)N[C@H](C(=O)N2CCCCC2)CC(=O)N(C)[C@@H](C)C(=O)N[C@@H](COCCN(C)C)C(=O)N(C)[C@@H](CC(C)C)C(=O)N(C)[C@@H](Cc2ccccc2)C(=O)N[C@@H](CC(C)C)C(=O)N(C)[C@@H](Cc2ccccc2)C(=O)N(C)[C@@H](CC(C)C)C(=O)N[C@@H]([C@@H](C)O)C1=O [pd56] ([NMeA]S(Me2NCH2CH2)[NMeL][NMeF]L[NMeF][NMeL]T[NBuGly][NMeV]D-Piperidide; lactam N-11)  0.12 ×10⁻⁶ cm/s
3. CC(C)C[C@@H]1NC(=O)[C@H](Cc2ccccc2)N(C)C(=O)[C@H](Cc2ccccc2)N(C)C(=O)[C@H](CC(C)C)NC(=O)[C@H](CC(C)C)N(C)C(=O)CCCN(C)C(=O)C[C@@H](C(=O)N2CCCCC2)NC(=O)[C@H](C)N(C)C(=O)[C@H](CCN2CCCC(F)(F)C2)N(C)C(=O)[C@H]([C@@H](C)O)NC(=O)[C@H](CC(C)C)N(C)C1=O [pd390] ([NMeGABA][NMeL]L[NMeF][NMeF]L[NMeL]T[NMeAbu(3,3-F2-piperidino)][NMeA]D-Piperidide; lactam N-11)  2 ×10⁻⁶ cm/s

Same assay, conditions: human, Caco-2, Caco-2 (cm/sec)

In order of falling Papp:
1. CCCCN1CC(=O)N(C)[C@@H](Cc2ccccc2)C(=O)N[C@@H]([C@@H](C)CC)C(=O)N(C)[C@@H](CC(C)C)C(=O)N[C@@H]([C@@H](C)O)C(=O)N(C)CC(=O)N(C)[C@@H](CCc2ccc(C(=O)NC)c(OC)c2)C(=O)N(C)[C@@H](CC(C)C)C(=O)N[C@@H](COC(C)(C)C)C(=O)N(C)[C@@H](CC(C)C)C(=O)N[C@H](C(=O)N2CCCCC2)CC1=O [AP232] ([NBuGly][NMeF]I[NMeL]T[Sar][NMeHph(3-OMe-4-CONHMe)][NMeL]S(tBu)[NMeL]D-Piperidide; lactam N-11)  2 ×10⁻⁶ cm/s
2. CC(C)C[C@@H]1NC(=O)[C@H](Cc2ccccc2)N(C)C(=O)[C@@H](C(C)C)NC(=O)C[C@@H](C(=O)N2CCCCC2)NC(=O)[C@H](CC(C)C)N(C)C(=O)[C@H](Cc2ccccc2)N(C)C(=O)[C@H](COCC(C)(C)CO)NC(=O)[C@H](CC(C)C)N(C)C(=O)CN(C)C(=O)[C@H]([C@@H](C)O)NC(=O)[C@H](CC(C)C)N(C)C1=O [AP118] ([dV][NMeF]L[NMeL]T[Sar][NMeL]S(Propyl(2,2-Me2,3-OH))[NMeF][NMeL]D-Piperidide; lactam N-11)  1.8 ×10⁻⁶ cm/s
3. CC[C@H](C)[C@@H]1NC(=O)[C@H](CC(C)C)N(C)C(=O)CCCN(C)C(=O)C[C@@H](C(=O)N2CCCCC2)NC(=O)[C@H](CC(C)C)N(C)C(=O)[C@H](CC(C)C)N(C)C(=O)[C@H]([C@@H](C)O)NC(=O)[C@H](CC(C)C)N(C)C(=O)[C@H](COCC(C)(C)CO)NC(=O)[C@H](Cc2ccccc2)N(C)C(=O)[C@H](Cc2ccccc2)N(C)C1=O [AP120] ([NMeGABA][NMeL]I[NMeF][NMeF]S(Propyl(2,2-Me2,3-OH))[NMeL]T[NMeL][NMeL]D-Piperidide; lactam N-11)  1.1 ×10⁻⁶ cm/s
4. CCCCN1CC(=O)N(C)[C@@H](Cc2ccccc2)C(=O)N(C)[C@@H](CC(C)C)C(=O)N[C@@H](CC(C)C)C(=O)N(C)[C@@H](CC(C)C)C(=O)N[C@H](C(=O)N2CCCCC2)CC(=O)N(C)CC(=O)N(C)[C@@H](CC(C)C)C(=O)N[C@@H](CCc2ccc(C(=O)NC)c(OC)c2)C(=O)N(C)[C@@H](CC)C(=O)N[C@@H]([C@@H](C)O)C1=O [AP206] ([Sar][NMeL][hPhe(3-OMe,4-CONHMe)][NMeAbu]T[NBuGly][NMeF][NMeL]L[NMeL]D-Piperidide; lactam N-11)  0.86 ×10⁻⁶ cm/s
5. CCCCN1CC(=O)N(C)[C@@H](CC(C)C)C(=O)N(C)[C@@H](CC(C)C)C(=O)N[C@@H](COC(C)(C)C)C(=O)N(C)[C@@H](CC(C)C)C(=O)N[C@H](C(=O)N2CCCCC2)CC(=O)N(C)CC(=O)N(C)[C@@H](Cc2cccc(Cl)c2)C(=O)N[C@@H](Cc2ccc(C(=O)NS(C)(=O)=O)c(OC)c2)C(=O)N(C)[C@@H](CC(C)C)C(=O)N[C@@H]([C@@H](C)O)C1=O [AP140] ([Sar][NMePhe(3-Cl)][Phe(3-OMe,4-CONHMs)][NMeL]T[NBuGly][NMeL][NMeL]S(tBu)[NMeL]D-Piperidide; lactam N-11)  0.49 ×10⁻⁶ cm/s
6. CC(C)C[C@@H]1NN(C)[C@H](Cc2ccccc2)N(C)C(=O)[C@@H](C(C)C)NC(=O)C[C@@H](C(=O)N2CCCCC2)NC(=O)[C@H](CC(C)C)N(C)C(=O)[C@H](CC(C)C)N(C)C(=O)[C@H](Cc2ccc(O)cc2)NC(=O)[C@H](CC(C)C)N(C)C(=O)CN(C)C(=O)[C@H]([C@@H](C)O)NC(=O)[C@H](CC(C)C)N(C)C1=O [Compound F01] ([dV][X19][NMeL]T[Sar][NMeL]Y[NMeL][NMeL]D-Piperidide; lactam N-10)  0.32 ×10⁻⁶ cm/s
